{"source": "the OPERA property sets (Mansouri et al. 2018)"}
{"conditions": "25 °C", "units": {"solubility": "mM"}}
{"smiles": "CCCC(=O)CCC", "solubility": 28}
{"smiles": "Cc1nc(N(C)C)nc(OC(=O)N(C)C)c1C", "solubility": 11.3}
{"smiles": "CCC(C)Cl", "note": "(stereo unspecified)", "solubility": 10.8}
{"smiles": "CCSCCSP(=S)(OC)OC", "solubility": 0.812}
{"smiles": "Brc1ccc(Br)cc1", "solubility": 0.0848}
{"smiles": "C=C(Cl)CSC(=S)N(CC)CC", "solubility": 0.447}
{"smiles": "Cc1cc(Cl)ccc1OCC(=O)O", "solubility": 3.14}
{"smiles": "CNc1ccccc1", "solubility": 52.4}
{"smiles": "O=c1cc[nH]c(=O)[nH]1", "solubility": 32.1}
{"smiles": "O=C1OCc2ccc([N+](=O)[O-])cc21", "solubility": 2.23}
{"smiles": "CCCC(C)(C)C", "solubility": 0.0439}
{"smiles": "Cc1cc(-c2ccc(N)c(C)c2)ccc1N", "solubility": 6.12}
{"smiles": "CCC(C)c1cc([N+](=O)[O-])cc([N+](=O)[O-])c1OC(C)=O", "note": "(stereo unspecified)", "solubility": 7.79}
{"smiles": "C=CC#N", "solubility": 1400}
{"smiles": "CCCOC(C)C", "solubility": 46}
{"smiles": "COc1cc(-c2ccc(N)c(OC)c2)ccc1N", "solubility": 0.246}
{"smiles": "CCCOP(=O)(OCCC)Oc1ccc(SC)cc1", "solubility": 0.411}
{"smiles": "CC(C)CCOC(=O)c1ccccc1O", "solubility": 0.696}
{"smiles": "CCC(C)(C)CO", "solubility": 74.4}
{"smiles": "O=C1C(Cl)=C(Cl)C(=O)C(Cl)=C1Cl", "solubility": 1.02}
{"smiles": "CCCC(=O)OC", "solubility": 147}
{"smiles": "CCOC(=O)C(C)N(C(=O)c1ccccc1)c1ccc(Cl)c(Cl)c1", "note": "(stereo unspecified)", "solubility": 0.0546}
{"smiles": "CCCCC(C)O", "note": "(stereo unspecified)", "solubility": 134}
{"smiles": "CC(Cl)(Cl)C(=O)O", "solubility": 3510}
{"smiles": "Cc1cccc2ccccc12", "solubility": 0.181}
{"smiles": "Oc1ccc(-c2ccccc2)cc1", "solubility": 0.33}
{"smiles": "COc1ccc2c(c1)N(C[C@H](C)CN(C)C)c1ccccc1S2", "solubility": 0.0609}
{"smiles": "O=C1NC(=O)C([N+](=O)[O-])C(=O)N1", "solubility": 5.2}
{"smiles": "O=C(O)c1cc(O)c(O)c(OC(=O)c2cc(O)c(O)c(O)c2)c1", "solubility": 1.55}
{"smiles": "Clc1cccc(-c2ccccc2)c1", "solubility": 0.0192}
{"smiles": "Cc1ccccc1C(=O)O", "solubility": 8.67}
{"smiles": "CCOc1ccccc1", "solubility": 4.66}
{"smiles": "CCC(C)C(C)C", "note": "(stereo unspecified)", "solubility": 0.0524}
{"smiles": "O=C(O)c1cc(=O)cc(C(=O)O)o1", "solubility": 77.7}
{"smiles": "CC(=O)C(C)C", "solubility": 706}
{"smiles": "O=C(O)COc1ccccc1Cl", "solubility": 6.86}
{"smiles": "CCCCC1(CC)C(=O)NC(=O)NC1=O", "solubility": 23}
{"smiles": "O=C(O)c1ccccc1C(=O)Nc1cccc2ccccc12", "solubility": 0.687}
{"smiles": "Clc1ccc2c(c1)Oc1ccccc1O2", "solubility": 0.00146}
{"smiles": "CCC1(C2=CCCCCC2)C(=O)NC(=O)NC1=O", "solubility": 0.999}
{"smiles": "NC(=O)c1ccccc1O", "solubility": 15}
{"smiles": "C#CCCCC", "solubility": 4.73}
{"smiles": "C[C@H]1c2cccc(O)c2C(=O)C2=C(O)[C@]3(O)C(=O)C(C(N)=O)=C(O)[C@@H](N(C)C)[C@@H]3[C@@H](O)[C@@H]21", "solubility": 1.42}
{"smiles": "CC1(C)[C@H](C(=O)O)CC[C@]1(C)C(=O)O", "solubility": 38}
{"smiles": "Cc1cc(=O)[nH]c(=S)[nH]1", "solubility": 3.75}
{"smiles": "Clc1cc(Cl)c2c(c1Cl)Oc1ccccc1O2", "solubility": "2.92e-05"}
{"smiles": "CC(=O)Nc1ccc(OC(C)=O)cc1", "solubility": 12.4}
{"smiles": "COC(=O)C(=O)OC", "solubility": 511}
{"smiles": "CCCCCCC(=O)O", "solubility": 21.6}
{"smiles": "Clc1cc(Cl)c(Cl)c(-c2c(Cl)c(Cl)cc(Cl)c2Cl)c1Cl", "solubility": "3.42e-07"}
{"smiles": "CC(Oc1ccc(Cl)cc1)C(=O)O", "note": "(stereo unspecified)", "solubility": 7.33}
{"smiles": "Clc1cccc2c1Oc1ccccc1O2", "solubility": 0.00191}
{"smiles": "OC(c1ccccc1)(c1ccccc1)c1ccccc1", "solubility": 5.5}
{"smiles": "CCCC[C@@H](O)CC", "solubility": 34.4}
{"smiles": "COC(C)C", "solubility": 877}
{"smiles": "C=C(C)c1ccccc1", "solubility": 0.982}
{"smiles": "C[C@]12CC[C@H](O)CC1=CC[C@@H]1[C@@H]2CC[C@]2(C)C(=O)CC[C@@H]12", "solubility": 0.129}
{"smiles": "CSCCC(N)C(=O)O", "note": "(racemic)", "solubility": 331}
{"smiles": "O=C(O)C(=O)Nc1ccccc1", "solubility": 49.9}
{"smiles": "Cc1cc(C)c2ccccc2n1", "solubility": 11.4}
{"smiles": "Cc1c2ccccc2c(C)c2ccccc12", "solubility": 0.000271}
{"smiles": "Cc1ccnc(C)c1", "solubility": 3020}
{"smiles": "c1ccc(CCc2ccccc2)cc1", "solubility": 0.0236}
{"smiles": "CCC(C)c1ccccc1", "note": "(stereo unspecified)", "solubility": 0.131}
{"conditions": "27 °C", "units": {"solubility": "mM"}}
{"smiles": "CCCCOC=O", "solubility": 74}
{"smiles": "C#C[C@]1(O)CC[C@H]2[C@@H]3CCc4cc(O)ccc4[C@H]3CC[C@@]21C", "solubility": 0.0381}
{"smiles": "c1cc2c3c(c1)ccc1cccc(c13)C2", "solubility": 0.00578}
{"conditions": "28 °C", "units": {"solubility": "mM"}}
{"smiles": "CCOC(=O)[C@H](Cc1ccccc1)NC(C)=O", "solubility": 17.6}
{"smiles": "c1ccc2c(c1)CCCC2", "solubility": 0.354}
{"smiles": "COc1ccc(C[C@H]2NC[C@H](O)[C@H]2OC(C)=O)cc1", "solubility": 24.7}
{"smiles": "O=C(O)CCCC(=O)O", "solubility": 12100}
{"conditions": "30 °C", "units": {"solubility": "mM"}}
{"smiles": "COP(=S)(OC)Oc1ccc(C#N)cc1", "solubility": 0.189}
{"smiles": "COC(=O)c1ccccc1O", "solubility": 48.6}
{"smiles": "Cc1c(N(C)C)c(=O)n(-c2ccccc2)n1C", "solubility": 235}
{"smiles": "COc1c2occc2cc2ccc(=O)oc12", "solubility": 0.22}
{"smiles": "NS(=O)(=O)c1cc2c(cc1Cl)N=CNS2(=O)=O", "solubility": 0.899}
